Test results as given in US6486096B1, “Herbicidal compositions with acylated aminophenylsulfonylureas” (priority 1998, dated 2002).
Where “and” joins values, the source holds several entries; their conditions need not be identical. Equal entries are not always repeated. Where two headings read alike, the source gives them in different places.

Legend:
Format in all cases: in vivo
corn = details: post-emergence
Procedure: (§1) The herbicidal activity of the active substances or active substance mixtures was scored visually with the aid of the treated parcels in comparison with untreated control parcels. Damage to and development of all above-ground parts of plants was recorded here. Scoring was carried out on a percentage scale (100% action=all plants died; 50% action=50% of the plants and green plant parts died; 0% action=no discernible action=like control parcels. The mean of the scoring values of 4 parcels in each case was taken.
(§2) Crop plants were raised outdoors under natural outdoor conditions on plots in which seeds or rhizome sections of typical harmful plants had been sown or the natural weed infestation was used. The treatment with the compositions according to the invention was carried out after the emergence of the harmful plants and the crop plants, as a rule in the 2 to 4-leaf stage; in some cases (as indicated) the application of individual active substances or active substance combinations was carried out pre-emergence (cf. Example 1) or as a sequence treatment, in some cases pre-emergence and/or post-emergence.
(§3) After the application, e.g. 2, 4, 6 and 8 weeks after application, the action of the preparations was scored visually in comparison with untreated controls (cf. score in Example 1). […] The crop plants, however, were not damaged or were only insignificantly damaged as a result of the treatment with the herbicidal compositions.

[1] = tested on: POLCO = Polygonum convolvulus; experiment: Herbicidal action, visual scoring; details: Table 15; post-emergence; scoring 4 weeks after application; g of A.S./ha by row: r6 30, r7 15, r8 7.5, r9 900, r10 450, r12 600, r14 20, r16 30 + 450, r17 7.5 + 900, r18 30 + 600, r19 7.5 + 600, r20 15 + 20, r21 7.5 + 20
Procedure: as §1, with “taken. […]” for “taken.”
as §2, §3

SOLNI = experiment: Herbicidal action, visual scoring; details: Table 10, post-emergence, scoring 3 weeks after application, g of A.S./ha by row: r7 120, r8 60, r9 30, r10 15, r11 12, r12 6, r13 3, r14 30 + 6, r16 15 + 6, r18 30 + 3
Procedure: as §1
(§4) Seeds or rhizome pieces of monocotyledonous and dicotyledonous weeds are placed in sandy loam soil in pots, covered with soil and grown in the greenhouse under good growth conditions (temperature, humidity, water supply). Three weeks after sowing, the test plants in the three-leaf stage are treated with the compositions according to the invention. The compositions according to the invention which are formulated as wettable powders or as emulsion concentrates are sprayed in various dosages on the green parts of the plants at an application rate of 600 to 800 l of water/ha (converted). After the test plants have remained in the greenhouse for about 3 to 4 weeks under optimal growth conditions, the effect of the products is scored visually by comparison with untreated controls. When applied post-emergence, too, the compositions according to the invention have a good herbicidal activity against a broad spectrum of economically important grass weeds and broad-leaved weeds.
as §2, §3

[2] = tested on: CHEAL = Chenopodium album; experiment: Herbicidal action, visual scoring; details: Table 9, post-emergence, scoring 3 weeks after application, g of A.S./ha by row: r6 120, r7 60, r8 30, r9 15, r10 60, r11 30, r12 15, r13 30 + 30, r14 15 + 30, r15 30 + 15, r16 2000, r17 1000, r18 500, r19 30 + 1000, r20 15 + 1000, r21 30 + 500
Procedure: as §1, §4, §2, §3

Digitaria sanguinalis = experiment: Herbicidal action, visual scoring; details: post-emergence, scoring 4 weeks after application
Procedure: as §1, §4, §2, §3

Ipomoea purpurea = experiment: Herbicidal action, visual scoring; details: Table 1, post-emergence, scoring 3 weeks after application, g of A.S./ha: 45, 60, 75, 1000, 2000, 3000, 75 + 1000
Procedure: as §1, §4, §2, §3

[3] = Table 9, scoring 3 weeks after application, g of A.S./ha by row: r6 120, r7 60, r8 30, r9 15, r10 60, r11 30, r12 15, r13 30 + 30, r14 15 + 30, r15 30 + 15, r16 2000, r17 1000, r18 500, r19 30 + 1000, r20 15 + 1000, r21 30 + 500

SMILES: O=C(O)c1nc(Cl)ccc1Cl [(B2.3.6), clopyralid]
- Damage on corn (corn; Table 19, scoring 3 weeks after application, g of A.S./ha by row: r6 60, r7 30, r8 15, r9 120, r10 60, r11 30, r12 30 + 30, r13 30 + 60, r14 60 + 30): 0% and 3%

SMILES: COc1cc(OC)n2nc(S(=O)(=O)Nc3c(Cl)ccc(C)c3Cl)nc2n1 [(B1.5.1), metosulam]
- Herbicidal action Polygonum convolvulus [1]: 55%

SMILES: CCS(=O)(=O)c1cccnc1S(=O)(=O)NC(=O)Nc1nc(OC)cc(OC)n1 [(B1.3.2), rimsulfuron]
- Herbicidal action SOLNI (SOLNI; 3 g active substance per ha): 35%
- Herbicidal action SOLNI (SOLNI; 6 g active substance per ha): 45%
- Herbicidal action SOLNI (SOLNI; 12 g active substance per ha): 60%

SMILES: CC(C)N(C(=O)COc1nnc(C(F)(F)F)s1)c1ccc(F)cc1 [(B1.2.7), fluthiamid]
- Herbicidal action Polygonum convolvulus [1]: 25%
- Damage on corn (corn; Table 15, scoring 4 weeks after application, g of A.S./ha by row: r6 30, r7 15, r8 7.5, r9 900, r10 450, r12 600, r14 20, r16 30 + 450, r17 7.5 + 900, r18 30 + 600, r19 7.5 + 600, r20 15 + 20, r21 7.5 + 20): 0%

SMILES: CCNc1nc(Cl)nc(NC(C)(C)C#N)n1 [(B1.2.3), cyanazine]
- Damage on corn (corn; Table 14, scoring 4 weeks after application, g of A.S./ha by row: r6 30, r7 15, r8 7.5, r9 2200, r10 1100, r11 550, r12 7.5 + 2200, r13 7.5 + 1100): 12% and 5% and 15%

SMILES: COc1cc(OC)nc(NC(=O)NS(=O)(=O)c2ncccc2C(=O)N(C)C)n1 [(B1.3.1), nicosulfuron]
- Herbicidal action CHEAL ([2]; 15 g active substance/ha): 55%
- Herbicidal action CHEAL ([2]; 30 g active substance/ha): 65%
- Herbicidal action CHEAL ([2]; 60 g active substance/ha): 90%
- Damage on corn (corn; [3]): 0%

SMILES: CS(=O)(=O)c1ccc(C(=O)C2C(=O)CCCC2=O)c(Cl)c1 [(B1.4.2), sulcotrione]
- Damage on corn (corn; Table 11, scoring 3 weeks after application, g of A.S./ha by row: r6 120, r7 60, r8 30, r9 15, r10 2000, r11 1000, r12 500, r13 30 + 1000, r14 15 + 1000, r15 30 + 500, r16 600, r17 300, r18 150, r19 30 + 300, r20 15 + 300, r21 30 + 150): 0%

SMILES: CS(=O)(=O)c1cc(Cl)ccc1C(=O)c1cnoc1C1CC1 [(B1.4.6), isoxachlortole]
- Herbicidal action Digitaria sanguinalis (Digitaria sanguinalis; Table 18, g of A.S./ha by row: r6 45, r7 22.5, r8 12.5, r9 25, r10 12.5, r12 12.5 + 25, r13 12.5 + 12.5, 12.5 g of A.S./ha): 30%
- Herbicidal action Digitaria sanguinalis (Digitaria sanguinalis; Table 18, g of A.S./ha by row: r6 45, r7 22.5, r8 12.5, r9 25, r10 12.5, r12 12.5 + 25, r13 12.5 + 12.5, 25 g of A.S./ha): 45%
- Damage on corn (corn; Table 18, scoring 4 weeks after application, g of A.S./ha by row: r6 45, r7 22.5, r8 12.5, r9 25, r12 12.5 + 25, r13 12.5 + 12.5): 12%

SMILES: CCc1cccc(CC)c1N(COC)C(=O)CCl [(B1.1.1), alachlor]
- Herbicidal action Digitaria sanguinalis (Digitaria sanguinalis; Table 17, g of A.S./ha by row: r6 60, r7 30, r8 15, r9 2000, r10 1000, r11 500, r12 15 + 1000, r13 30 + 500, r14 2000, r15 1000, r16 500, r17 30 + 500, r18 15 + 500, r19 15 + 1000, 500 g A.S./ha): 40%
- Herbicidal action Digitaria sanguinalis (Digitaria sanguinalis; Table 17, g of A.S./ha by row: r6 60, r7 30, r8 15, r9 2000, r10 1000, r11 500, r12 15 + 1000, r13 30 + 500, r14 2000, r15 1000, r16 500, r17 30 + 500, r18 15 + 500, r19 15 + 1000, 1000 g A.S./ha): 50%
- Herbicidal action Digitaria sanguinalis (Digitaria sanguinalis; Table 17, g of A.S./ha by row: r6 60, r7 30, r8 15, r9 2000, r10 1000, r11 500, r12 15 + 1000, r13 30 + 500, r14 2000, r15 1000, r16 500, r17 30 + 500, r18 15 + 500, r19 15 + 1000, 2000 g A.S./ha): 65%
- Damage on corn (corn; Table 17, scoring 4 weeks after application, g of A.S./ha by row: r6 60, r7 30, r8 15, r9 2000, r10 1000, r11 500, r12 15 + 1000, r13 30 + 500, r14 2000, r15 1000, r16 500, r17 30 + 500, r18 15 + 500, r19 15 + 1000): 0%

SMILES: CCc1cccc(C)c1N(C(=O)CCl)C(C)COC (stereo not shown) [(B1.1.2), metolachlor]
- Herbicidal action CHEAL [2]: 0%
- Damage on corn (corn; [3]): 0%

SMILES: CCNc1nc(Cl)nc(NC(C)C)n1 [(B1.2.1), atrazine]
- Herbicidal action against Ipomoea purpurea (Ipomoea purpurea; 1000 g active substance per ha): 70%
- Herbicidal action against Ipomoea purpurea (Ipomoea purpurea; 2000 g active substance per ha): 85%
- Herbicidal action against Ipomoea purpurea (Ipomoea purpurea; 3000 g active substance per ha): 90%
- Damage on corn (corn; Table 1, scoring 3 weeks after application, g of A.S./ha: 45, 60, 75, 1000, 2000, 3000, 75 + 1000): 0%

SMILES: Cc1cc(Cl)ccc1OCC(=O)O [(B2.5.2), MCPA]
- Damage on corn (corn; Table 16, scoring 4 weeks after application, g of A.S./ha: 60, 30, 15, 1500, 750, 375, 30 + 750, 30 + 375, 15 + 750, 60 + 375): 6% and 0% and 10%

SMILES: COc1nc(NC(=O)NS(=O)(=O)c2ccccc2C(F)(F)F)nc(C(F)(F)F)n1 [(B2.4.5), tritosulfuron]
- Damage on corn (corn; Table 7, scoring 3 weeks after application, g of A.S./ha by row: r6 15, r7 30, r8 45, r9 60, r10 2.5, r11 5, r12 15 + 2.5, r13 15 + 5): 1%
